Results published in EP4268819A1 (priority 2022, dated 2023).
Where two headings read alike, the source gives them in different places.

Experiments:
[1] = test system: SARS-CoV-2 clinical omicron isolate
[2] = test system: SARS-CoV-2 clinical omicron isolate; experiment: microbe, parasite or virus in culture; conditions: Severe acute respiratory syndrome coronavirus 2, Calu-3

Compound	Therapeutic range: CC50/IC50 (CTG) ([1]; SARS-CoV-2 omicron in Calu-3 cells, CC50 by CTG)	Therapeutic range: CC50/IC50 (IncuCyte) ([1]; SARS-CoV-2 omicron in Calu-3 cells, CC50 by IncuCyte)	Therapeutic range: CC50/IC50 (MTT) ([1]; SARS-CoV-2 omicron in Calu-3 cells, CC50 by MTT)	IC50 [2]	Therapeutic range: CC50/IC50 (CTG) ([1]; human, calu-3 cells)	Therapeutic range: CC50/IC50 (IncuCyte) ([1]; human, calu-3 cells)	Therapeutic range: CC50/IC50 (MTT) ([1]; human, calu-3 cells)
COc1[nH]c(=O)c(C(=O)[C@@H](C)C[C@H](C)[C@@H](Cl)CCl)c(O)c1OC [Atpenin A5, atpenin A5]	CTG: 1.3	IncuCyte: > 117.6	MTT: 1.8				
[H]/N=C(/N)N/C(=N/[H])NCCc1ccccc1 [Phenformin]				1350 nM	CTG: 1674	IncuCyte: 1111	MTT: 1123
